Data from patent publication US11208400B2, “Substituted 6-(1H-pyrazol-1-yl)pyrimidin-4-amine derivatives and uses thereof” (Bayer Aktiengesellschaft, priority 2016, dated 2021).

What follows are molecules tested against T1, human Npt2a (Homo sapiens, UniProt Q06495) (assay: Npt2a activity cell based assay, membrane potential dye, CHO T-REx hNpt2a cells). Details: doxycycline-induced, depolarization by sodium phosphate influx, average or median values if tested more than once.
T1 construct: expressed in transfected cells
T1 sequence (Q06495 1-639): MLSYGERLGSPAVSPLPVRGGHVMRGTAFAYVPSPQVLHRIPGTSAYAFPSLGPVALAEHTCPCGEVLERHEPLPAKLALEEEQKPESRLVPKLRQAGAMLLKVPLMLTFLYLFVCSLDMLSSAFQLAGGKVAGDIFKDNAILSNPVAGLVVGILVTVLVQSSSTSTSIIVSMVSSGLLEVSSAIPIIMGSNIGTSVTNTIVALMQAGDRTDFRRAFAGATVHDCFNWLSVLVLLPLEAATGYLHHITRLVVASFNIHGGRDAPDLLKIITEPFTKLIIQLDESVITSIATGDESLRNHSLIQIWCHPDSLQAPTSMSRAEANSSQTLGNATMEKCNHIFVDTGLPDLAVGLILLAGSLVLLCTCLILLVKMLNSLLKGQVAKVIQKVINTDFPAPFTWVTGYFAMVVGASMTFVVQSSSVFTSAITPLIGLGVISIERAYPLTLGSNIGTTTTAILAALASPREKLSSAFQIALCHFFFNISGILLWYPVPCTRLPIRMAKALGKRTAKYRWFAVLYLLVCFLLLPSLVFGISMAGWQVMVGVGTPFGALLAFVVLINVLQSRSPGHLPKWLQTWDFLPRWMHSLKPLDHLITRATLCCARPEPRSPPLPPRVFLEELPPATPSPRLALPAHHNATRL
Method in brief: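 Cells were doxycycline-induced CHO T-REx hNpt2a, dye-loaded and pretreated 5 min at RT with 1 nM–50 μM compound in Na-free pH 7.4 buffer. IC50 was fit to the post/pre-trigger fluorescence ratio.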
Work on `CCc1c(-c2ccc(F)cc2)nn(CC(F)F)c1Nc1cc(-n2nc(C)c(Cl)c2C(F)F)ncn1` [Example 179, 6-[4-chloro-5-(difluoromethyl)-3-methyl-1H-pyrazol-1-yl]-N-[1-(2,2-difluoroethyl)-4-ethyl-3-(4-fluorophenyl)-1H-pyrazol-5-yl]pyrimidin-4-amine] yielded an IC50 of 170 nM.
`CCOC(=O)c1c(C)nn(-c2cc(Nc3c(CC)c(-c4ccc(F)cc4)nn3CC(F)F)ncn2)c1C` [Example 180, ethyl 1-(6-{[1-(2,2-difluoroethyl)-4-ethyl-3-(4-fluorophenyl)-1H-pyrazol-5-yl]amino}pyrimidin-4-yl)-3,5-dimethyl-1H-pyrazole-4-carboxylate] gave an IC50 of 47 nM.
`CCc1c(Nc2cc(-n3nc(C)c(C(C)(C)O)c3C)ncn2)n[nH]c1-c1ccc(F)cc1` [Example 181, 2-[1-(6-{[4-ethyl-5-(4-fluorophenyl)-1H-pyrazol-3-yl]amino}pyrimidin-4-yl)-3,5-dimethyl-1H-pyrazol-4-yl]propan-2-ol] gave an IC50 of 1500 nM.
In the case of `CCc1c(-c2ccc(F)cc2)nn(CC2CCC2)c1Nc1cc(-n2nc(C)cc2C)ncn1` [Example 182, N-[1-(cyclobutylmethyl)-4-ethyl-3-(4-fluorophenyl)-1H-pyrazol-5-yl]-6-(3,5-dimethyl-1H-pyrazol-1-yl)pyrimidin-4-amine], the IC50 is reported as 106 nM.
For `Cc1nn(-c2cc(Nc3nn(CC4CC4)c(-c4ccc(F)cc4)c3Cl)ncn2)c(C)c1Cl` [Example 183, N-[4-chloro-1-(cyclopropylmethyl)-5-(4-fluorophenyl)-1H-pyrazol-3-yl]-6-(4-chloro-3,5-dimethyl-1H-pyrazol-1-yl)pyrimidin-4-amine], the IC50 was 930 nM.
`Cc1nn(-c2cc(Nc3nn(CC4CC4)c(-c4ccc(F)cc4)c3Cl)ncn2)c(C(F)F)c1Cl` [Example 184, N-[4-chloro-1-(cyclopropylmethyl)-5-(4-fluorophenyl)-1H-pyrazol-3-yl]-6-[4-chloro-5-(difluoromethyl)-3-methyl-1H-pyrazol-1-yl]pyrimidin-4-amine] showed an IC50 of 1200 nM.
`Cc1nn(-c2cc(Nc3c(Cl)c(-c4ccc(F)cc4)nn3CC3CC3)ncn2)c(C)c1Cl` [Example 185, N-[4-chloro-1-(cyclopropylmethyl)-3-(4-fluorophenyl)-1H-pyrazol-5-yl]-6-(4-chloro-3,5-dimethyl-1H-pyrazol-1-yl)pyrimidin-4-amine] gave an IC50 of 27 nM.
`Cc1nn(-c2cc(Nc3c(Cl)c(-c4ccc(F)cc4)nn3CC3CC3)ncn2)c(C(F)F)c1Cl` [Example 186, N-[4-chloro-1-(cyclopropylmethyl)-3-(4-fluorophenyl)-1H-pyrazol-5-yl]-6-[4-chloro-5-(difluoromethyl)-3-methyl-1H-pyrazol-1-yl]pyrimidin-4-amine] was tested, and the IC50 was 60 nM.
`Cc1cc(C)n(-c2cc(Nc3c(Cl)c(-c4ccc(F)cc4)nn3CC3CC3)ncn2)n1` [Example 187, N-[4-chloro-1-(cyclopropylmethyl)-3-(4-fluorophenyl)-1H-pyrazol-5-yl]-6-(3,5-dimethyl-1H-pyrazol-1-yl)pyrimidin-4-amine] was tested, and the IC50 was 10 nM.
`CCc1c(Nc2cc(-n3nc(C)c(C(C)(C)O)c3C)ncn2)nn(CC2CC2)c1-c1ccc(F)cc1` [Example 188, 2-[1-(6-{[1-(cyclopropylmethyl)-4-ethyl-5-(4-fluorophenyl)-1H-pyrazol-3-yl]amino}pyrimidin-4-yl)-3,5-dimethyl-1H-pyrazol-4-yl]propan-2-ol] showed an IC50 of 710 nM.
`Cc1cc(C)n(-c2cc(Nc3nn(C)c(-c4cccc(C#N)c4)c3C)ncn2)n1` [Example 189, 3-(3-{[6-(3,5-dimethyl-1H-pyrazol-1-yl)pyrimidin-4-yl]amino}-1,4-dimethyl-1H-pyrazol-5-yl)benzonitrile] showed an IC50 of 74 nM.
For `CCc1c(Nc2cc(-n3nc(C)c(C(C)(C)O)c3C(F)F)ncn2)nn(C)c1-c1ccc(F)cc1` [Example 190, 2-[5-(difluoromethyl)-1-(6-{[4-ethyl-5-(4-fluorophenyl)-1-methyl-1H-pyrazol-3-yl]amino}pyrimidin-4-yl)-3-methyl-1H-pyrazol-4-yl]propan-2-ol], the IC50 was 210 nM.
`CCc1c(Nc2cc(-n3nc(C)c(Br)c3C)ncn2)nn(C)c1-c1ccc(F)cc1` [Example 191, 6-(4-bromo-3,5-dimethyl-1H-pyrazol-1-yl)-N-[4-ethyl-5-(4-fluorophenyl)-1-methyl-1H-pyrazol-3-yl]pyrimidin-4-amine] gave an IC50 of 3 nM.
`Cc1nn(-c2cc(Nc3c(C)c(-c4ccc(C#N)cc4)nn3CC3CC3)ncn2)c(C(F)F)c1C(=O)OC(C)(C)C` [Example 192, tert-butyl 1-(6-{[3-(4-cyanophenyl)-1-(cyclopropylmethyl)-4-methyl-1H-pyrazol-5-yl]amino}pyrimidin-4-yl)-5-(difluoromethyl)-3-methyl-1H-pyrazole-4-carboxylate] was tested, and the IC50 was 16 nM.
Work on `CCc1c(-c2ccc(F)cc2)nn(CC2CC2)c1Nc1cc(-n2nc(C)c(C(=O)OC(C)(C)C)c2C(F)F)ncn1` [Example 193, tert-butyl 1-(6-{[1-(cyclopropylmethyl)-4-ethyl-3-(4-fluorophenyl)-1H-pyrazol-5-yl]amino}pyrimidin-4-yl)-5-(difluoromethyl)-3-methyl-1H-pyrazole-4-carboxylate] yielded an IC50 of 51 nM.
In the case of `Cc1cc(C)n(-c2cc(Nc3nn(C)c(-c4ccc(F)cc4)c3CN3CCCC3)ncn2)n1` [Example 194, 6-(3,5-dimethyl-1H-pyrazol-1-yl)-N-[5-(4-fluorophenyl)-1-methyl-4-(pyrrolidin-1-ylmethyl)-1H-pyrazol-3-yl]pyrimidin-4-amine], the IC50 is reported as 1300 nM.
`CCc1c(Nc2cc(-n3nc(C)c(Cl)c3C(C)(C)O)ncn2)nn(C)c1-c1ccc(F)cc1` [Example 195, 2-[4-chloro-1-(6-{[4-ethyl-5-(4-fluorophenyl)-1-methyl-1H-pyrazol-3-yl]amino}pyrimidin-4-yl)-3-methyl-1H-pyrazol-5-yl]propan-2-ol] gave an IC50 of 3 nM.
For `Cc1nn(-c2cc(Nc3nn(C)c(-c4ccc(C#N)cc4)c3C)ncn2)c(C)c1Cl` [Example 196, 4-(3-{[6-(4-chloro-3,5-dimethyl-1H-pyrazol-1-yl)pyrimidin-4-yl]amino}-1,4-dimethyl-1H-pyrazol-5-yl)benzonitrile], the IC50 was 2 nM.
Work on `Cc1cc(C)n(-c2cc(Nc3c(C)c(-c4ccc(C#N)cc4)nn3C)ncn2)n1` [Example 197, 4-(5-{[6-(3,5-dimethyl-1H-pyrazol-1-yl)pyrimidin-4-yl]amino}-1,4-dimethyl-1H-pyrazol-3-yl)benzonitrile] yielded an IC50 of 28 nM.
Work on `Cc1cc(C)n(-c2cc(Nc3c(C)c(-c4ccc(C#N)cc4)nn3CCC3CC3)ncn2)n1` [Example 198, 4-[1-(2-cyclopropylethyl)-5-{[6-(3,5-dimethyl-1H-pyrazol-1-yl)pyrimidin-4-yl]amino}-4-methyl-1H-pyrazol-3-yl]benzonitrile] yielded an IC50 of 12 nM.
With `Cc1cc(C)n(-c2cc(Nc3c(C)nn(-c4ccc(C#N)cc4)c3C)ncn2)n1` [Example 199, 4-(4-{[6-(3,5-dimethyl-1H-pyrazol-1-yl)pyrimidin-4-yl]amino}-3,5-dimethyl-1H-pyrazol-1-yl)benzonitrile] the IC50 was 36 nM.
`Cc1nn(-c2cc(Nc3c(C)nn(-c4ccc(C#N)cc4)c3C)ncn2)c(C(F)F)c1Cl` [Example 200, 4-[4-({6-[4-chloro-5-(difluoromethyl)-3-methyl-1H-pyrazol-1-yl]pyrimidin-4-yl}amino)-3,5-dimethyl-1H-pyrazol-1-yl]benzonitrile] showed an IC50 of 8 nM.
In the case of `Cc1nn(-c2cc(Nc3c(C)c(-c4ccc(C#N)cc4)nn3C)ncn2)c(C)c1Cl` [Example 201, 4-(5-{[6-(4-chloro-3,5-dimethyl-1H-pyrazol-1-yl)pyrimidin-4-yl]amino}-1,4-dimethyl-1H-pyrazol-3-yl)benzonitrile], the IC50 is reported as 6 nM.
`CCc1c(-c2ccc(C#N)cc2)nn(CC2CC2)c1Nc1cc(-n2nc(C)c(C(C)=O)c2C)ncn1` [Example 202, 4-[5-{[6-(4-acetyl-3,5-dimethyl-1H-pyrazol-1-yl)pyrimidin-4-yl]amino}-1-(cyclopropylmethyl)-4-ethyl-1H-pyrazol-3-yl]benzonitrile] showed an IC50 of 13 nM.
In the case of `CCc1c(-c2ccc(C#N)cc2)nn(CC2CC2)c1Nc1cc(-n2nc(C)c3ccncc32)ncn1` [Example 203, 4-[1-(cyclopropylmethyl)-4-ethyl-5-{[6-(3-methyl-1H-pyrazolo[3,4-c]pyridin-1-yl)pyrimidin-4-yl]amino}-1H-pyrazol-3-yl]benzonitrile], the IC50 is reported as 1400 nM.
For `Cc1c(-c2ccc(F)cc2)nn(CC2CC2)c1Nc1cc(-n2nc(C)c3ccncc32)ncn1` [Example 204, N-[1-(cyclopropylmethyl)-3-(4-fluorophenyl)-4-methyl-1H-pyrazol-5-yl]-6-(3-methyl-1H-pyrazolo[3,4-c]pyridin-1-yl)pyrimidin-4-amine], the IC50 was 3 nM.
Work on `CCc1c(-c2ccc(F)cc2)nn(CC2CC2)c1Nc1cc(-n2nc(C)c3ccncc32)ncn1` [Example 205, N-[1-(cyclopropylmethyl)-4-ethyl-3-(4-fluorophenyl)-1H-pyrazol-5-yl]-6-(3-methyl-1H-pyrazolo[3,4-c]pyridin-1-yl)pyrimidin-4-amine] yielded an IC50 of 20 nM.
